# Results published in ChEMBL document CHEMBL4507259 (2021).
# Key:
# Calu-6 = experiment: Calu 6 cell line Proliferation assay; type: functional, Homo sapiens; details: Compound concentration 10 uM; time 3 day
# MDA-MB-231 = experiment: MDA_MB_231 cell line Proliferation assay; type: functional, Homo sapiens; details: Compound concentration 10 uM; time 5 day
# DB = experiment: DB cell line Proliferation assay; type: functional, Homo sapiens; details: Compound concentration 10 uM; time 3 day
# SK-MEL-1 = experiment: SKMEL1 cell line Proliferation assay; type: functional, Homo sapiens; details: Compound concentration 10 uM; time 5 day
# [1] = target: Delta-type opioid receptor (Homo sapiens) (UniProt P41143); details: Compound concentration 10.0 uM
# Chain of Delta-type opioid receptor (Homo sapiens) (P41143 whole entry): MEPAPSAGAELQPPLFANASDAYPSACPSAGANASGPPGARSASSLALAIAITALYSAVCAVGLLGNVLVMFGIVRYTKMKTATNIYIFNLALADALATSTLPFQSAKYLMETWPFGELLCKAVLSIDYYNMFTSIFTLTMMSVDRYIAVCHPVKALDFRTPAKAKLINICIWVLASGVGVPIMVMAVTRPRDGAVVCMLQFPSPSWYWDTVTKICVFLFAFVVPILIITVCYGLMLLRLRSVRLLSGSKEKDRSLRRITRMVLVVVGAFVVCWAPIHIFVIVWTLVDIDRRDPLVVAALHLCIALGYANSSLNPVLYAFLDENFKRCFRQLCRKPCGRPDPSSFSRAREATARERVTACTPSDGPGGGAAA
# Farage = experiment: Farage cell line Proliferation assay; type: functional, Homo sapiens; details: Compound concentration 10 uM; time 3 day
# RPMI-8226 = experiment: RPMI-8226 cell line Proliferation assay; type: functional, Homo sapiens; details: Compound concentration 10 uM; time 3 day
# Hs 294T = experiment: Hs294T cell line Proliferation assay; type: functional, Homo sapiens; details: Compound concentration 10 uM; time 5 day
# Pfeiffer = experiment: Pfeiffer cell line Proliferation assay; type: functional, Homo sapiens; details: Compound concentration 10 uM; time 3 day
# KARPAS-422 = experiment: Karpas422 cell line Proliferation assay; type: functional, Homo sapiens; details: Compound concentration 10 uM; time 3 day
# [2] = target: Histone acetyltransferase KAT6B (Homo sapiens) (UniProt Q8WYB5); experiment: MYST4 (HAT) CEREP ligand profiling; details: Compound concentration 10.0 uM
# Chain of Histone acetyltransferase KAT6B (Homo sapiens) (Q8WYB5 whole entry): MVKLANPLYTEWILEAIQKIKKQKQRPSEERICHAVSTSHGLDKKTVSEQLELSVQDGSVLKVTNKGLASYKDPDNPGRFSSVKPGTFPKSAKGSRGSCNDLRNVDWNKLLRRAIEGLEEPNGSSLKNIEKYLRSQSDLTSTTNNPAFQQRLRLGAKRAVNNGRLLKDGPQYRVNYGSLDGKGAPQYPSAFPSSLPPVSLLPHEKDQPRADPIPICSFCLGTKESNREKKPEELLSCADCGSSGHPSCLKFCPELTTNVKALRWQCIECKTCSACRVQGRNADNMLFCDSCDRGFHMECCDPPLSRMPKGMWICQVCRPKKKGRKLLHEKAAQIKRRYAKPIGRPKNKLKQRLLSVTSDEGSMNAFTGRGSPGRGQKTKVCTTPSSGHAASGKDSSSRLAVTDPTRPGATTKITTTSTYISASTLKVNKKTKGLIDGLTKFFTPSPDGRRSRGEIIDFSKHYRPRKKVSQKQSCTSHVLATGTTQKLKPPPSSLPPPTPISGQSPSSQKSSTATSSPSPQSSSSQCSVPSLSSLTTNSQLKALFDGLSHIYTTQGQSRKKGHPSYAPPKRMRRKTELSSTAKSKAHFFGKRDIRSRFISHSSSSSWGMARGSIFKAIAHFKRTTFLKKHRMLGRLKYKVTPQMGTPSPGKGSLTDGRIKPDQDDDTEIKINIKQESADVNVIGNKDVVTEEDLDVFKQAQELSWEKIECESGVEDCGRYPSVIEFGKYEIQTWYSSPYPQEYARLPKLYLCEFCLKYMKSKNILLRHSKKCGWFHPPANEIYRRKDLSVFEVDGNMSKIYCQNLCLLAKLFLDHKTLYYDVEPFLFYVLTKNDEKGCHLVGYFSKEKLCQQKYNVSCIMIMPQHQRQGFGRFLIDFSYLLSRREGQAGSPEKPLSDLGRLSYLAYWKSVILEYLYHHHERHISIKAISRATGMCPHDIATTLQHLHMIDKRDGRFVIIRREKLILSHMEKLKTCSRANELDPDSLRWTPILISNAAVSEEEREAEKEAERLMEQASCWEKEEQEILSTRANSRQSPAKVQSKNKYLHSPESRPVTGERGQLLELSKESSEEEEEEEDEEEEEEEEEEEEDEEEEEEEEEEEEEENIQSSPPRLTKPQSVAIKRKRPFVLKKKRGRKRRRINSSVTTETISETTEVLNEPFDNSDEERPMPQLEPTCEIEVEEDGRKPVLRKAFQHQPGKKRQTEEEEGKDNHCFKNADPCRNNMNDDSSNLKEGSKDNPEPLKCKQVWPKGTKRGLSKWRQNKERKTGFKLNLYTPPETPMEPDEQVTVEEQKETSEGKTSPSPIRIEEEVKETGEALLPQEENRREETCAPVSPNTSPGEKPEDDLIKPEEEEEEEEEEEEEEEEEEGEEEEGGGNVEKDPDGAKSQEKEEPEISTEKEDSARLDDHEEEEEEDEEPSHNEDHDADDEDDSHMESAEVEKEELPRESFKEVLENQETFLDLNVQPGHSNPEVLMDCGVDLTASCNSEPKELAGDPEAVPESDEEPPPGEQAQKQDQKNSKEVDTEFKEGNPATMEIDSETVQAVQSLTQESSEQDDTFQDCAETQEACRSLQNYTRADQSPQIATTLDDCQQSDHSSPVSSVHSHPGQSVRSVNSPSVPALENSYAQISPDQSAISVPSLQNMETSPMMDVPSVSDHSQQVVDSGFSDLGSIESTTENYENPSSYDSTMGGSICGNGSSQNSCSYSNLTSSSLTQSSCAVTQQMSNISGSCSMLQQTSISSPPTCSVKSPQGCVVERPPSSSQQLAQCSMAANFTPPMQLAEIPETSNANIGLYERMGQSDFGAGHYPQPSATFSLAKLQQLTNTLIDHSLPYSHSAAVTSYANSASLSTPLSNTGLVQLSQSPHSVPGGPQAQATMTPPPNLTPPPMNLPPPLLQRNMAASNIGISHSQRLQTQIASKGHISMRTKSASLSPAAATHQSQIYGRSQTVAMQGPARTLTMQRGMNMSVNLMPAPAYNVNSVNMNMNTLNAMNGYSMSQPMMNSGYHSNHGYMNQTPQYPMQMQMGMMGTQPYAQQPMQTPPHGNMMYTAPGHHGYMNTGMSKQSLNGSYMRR
# SU-DHL-5 = experiment: SuDHL5 cell line Proliferation assay; type: functional, Homo sapiens; details: Compound concentration 10 uM; time 3 day
# [3] = target: 5-hydroxytryptamine receptor 2B (Homo sapiens, UniProt P41595); experiment: GPCRScan assay: inhibition of 5-HT2B; set-up: radioligand conc. used [nm] 1.0 – 2.0, parental cells stable HEK
# Chain of 5-hydroxytryptamine receptor 2B (P41595 whole entry): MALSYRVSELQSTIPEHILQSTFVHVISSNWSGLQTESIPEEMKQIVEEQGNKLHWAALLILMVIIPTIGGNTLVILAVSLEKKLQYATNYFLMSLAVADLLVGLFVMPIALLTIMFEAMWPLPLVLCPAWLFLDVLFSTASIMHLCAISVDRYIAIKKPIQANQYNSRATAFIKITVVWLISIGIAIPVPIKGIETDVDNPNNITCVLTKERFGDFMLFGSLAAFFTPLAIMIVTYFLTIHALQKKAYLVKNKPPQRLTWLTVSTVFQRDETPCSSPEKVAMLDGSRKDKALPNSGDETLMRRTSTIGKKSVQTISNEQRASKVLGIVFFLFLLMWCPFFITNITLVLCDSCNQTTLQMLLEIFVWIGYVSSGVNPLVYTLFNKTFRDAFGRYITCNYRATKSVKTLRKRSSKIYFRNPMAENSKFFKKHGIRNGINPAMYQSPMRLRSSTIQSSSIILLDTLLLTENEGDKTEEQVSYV
# KMS-11 = experiment: KMS-11 cell line Proliferation assay; type: functional, Homo sapiens; details: Compound concentration 10 uM; time 3 day
# Daudi = experiment: Daudi cell line Proliferation assay; type: functional, Homo sapiens; details: Compound concentration 10 uM; time 3 day
# Raji = experiment: Raji cell line Proliferation assay; type: functional, Homo sapiens; details: Compound concentration 10 uM; time 3 day
# JVM-2 = experiment: JVM-2 cell line Proliferation assay; type: functional, Homo sapiens; details: Compound concentration 10 uM; time 3 day
# CA46 = experiment: CA46 cell line Proliferation assay; type: functional, Homo sapiens; details: Compound concentration 10 uM; time 3 day
# [4] = target: Beta-2 adrenergic receptor (Homo sapiens) (UniProt P07550); experiment: beta 2 (h) CEREP ligand profiling; details: filed as agonist, Compound concentration 10.0 uM
# Chain of Beta-2 adrenergic receptor (Homo sapiens) (P07550 whole entry, looked up): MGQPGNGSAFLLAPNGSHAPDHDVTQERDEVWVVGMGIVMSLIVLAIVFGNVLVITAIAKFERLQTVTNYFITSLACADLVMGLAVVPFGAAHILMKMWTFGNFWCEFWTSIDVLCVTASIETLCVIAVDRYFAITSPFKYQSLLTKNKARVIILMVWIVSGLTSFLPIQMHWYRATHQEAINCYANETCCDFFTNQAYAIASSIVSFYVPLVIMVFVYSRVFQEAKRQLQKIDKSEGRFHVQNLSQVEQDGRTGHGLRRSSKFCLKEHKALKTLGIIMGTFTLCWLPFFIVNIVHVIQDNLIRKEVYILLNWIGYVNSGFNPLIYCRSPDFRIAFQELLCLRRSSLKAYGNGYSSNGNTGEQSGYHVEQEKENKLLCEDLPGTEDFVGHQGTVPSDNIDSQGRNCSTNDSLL
# [5] = target: 5-hydroxytryptamine receptor 7 (Homo sapiens) (UniProt P34969); details: Compound concentration 10.0 uM
# Chain of 5-hydroxytryptamine receptor 7 (Homo sapiens) (P34969 whole entry): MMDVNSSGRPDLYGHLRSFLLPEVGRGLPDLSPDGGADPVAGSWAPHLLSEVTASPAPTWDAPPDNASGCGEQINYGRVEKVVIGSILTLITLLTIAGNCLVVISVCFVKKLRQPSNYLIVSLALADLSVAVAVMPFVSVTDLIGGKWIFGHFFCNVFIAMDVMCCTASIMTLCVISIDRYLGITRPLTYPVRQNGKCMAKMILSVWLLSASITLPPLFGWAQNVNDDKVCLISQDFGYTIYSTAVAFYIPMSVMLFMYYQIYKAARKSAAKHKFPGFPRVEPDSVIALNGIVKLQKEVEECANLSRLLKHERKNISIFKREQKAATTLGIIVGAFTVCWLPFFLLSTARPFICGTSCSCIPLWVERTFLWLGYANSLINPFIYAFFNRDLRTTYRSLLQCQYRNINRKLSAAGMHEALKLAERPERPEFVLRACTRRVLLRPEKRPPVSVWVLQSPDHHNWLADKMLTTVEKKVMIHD
# Granta-519 = experiment: Granta 519 cell line Proliferation assay; type: functional, Homo sapiens; details: Compound concentration 10 uM; time 3 day
# NCI-H596 = experiment: H596 cell line Proliferation assay; type: functional, Homo sapiens; details: Compound concentration 10 uM; time 3 day
# GA-10 = experiment: GA10 cell line Proliferation assay; type: functional, Homo sapiens; details: Compound concentration 10 uM; time 3 day
# NCI-H1048 = experiment: H1048 cell line Proliferation assay; type: functional, Homo sapiens; details: Compound concentration 10 uM; time 4 day
# [6] = target: Sodium-dependent dopamine transporter (Homo sapiens, UniProt Q01959); experiment: GPCRScan assay: inhibition of DAT; set-up: radioligand conc. used [nm] 3.6 – 16.0, parental cells stable HEK
# Chain of Sodium-dependent dopamine transporter (Q01959 whole entry): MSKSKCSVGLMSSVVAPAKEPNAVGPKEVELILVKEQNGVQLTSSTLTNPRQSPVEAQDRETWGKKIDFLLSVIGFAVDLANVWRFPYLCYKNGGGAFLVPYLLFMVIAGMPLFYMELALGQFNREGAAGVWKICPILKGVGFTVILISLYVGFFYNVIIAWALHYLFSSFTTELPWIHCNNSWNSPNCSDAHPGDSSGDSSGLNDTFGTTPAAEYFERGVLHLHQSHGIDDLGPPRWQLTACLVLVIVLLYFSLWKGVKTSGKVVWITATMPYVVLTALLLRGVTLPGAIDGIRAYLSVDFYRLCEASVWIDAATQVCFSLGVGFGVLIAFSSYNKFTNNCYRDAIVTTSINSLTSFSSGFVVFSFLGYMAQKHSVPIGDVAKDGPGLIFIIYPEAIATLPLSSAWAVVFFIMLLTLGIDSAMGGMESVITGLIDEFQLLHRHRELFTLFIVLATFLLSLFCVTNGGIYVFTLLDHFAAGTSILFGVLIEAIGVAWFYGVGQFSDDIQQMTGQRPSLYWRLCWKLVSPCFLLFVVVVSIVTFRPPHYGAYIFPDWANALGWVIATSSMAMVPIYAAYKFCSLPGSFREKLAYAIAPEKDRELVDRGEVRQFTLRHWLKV
# ULA = experiment: ULA cell line Proliferation assay; type: functional, Homo sapiens; details: Compound concentration 10 uM; time 3 day
# MOLT-4 = experiment: MOLT-4 cell line Proliferation assay; type: functional, Homo sapiens; details: Compound concentration 10 uM; time 3 day
# OCI-AML2 = experiment: OCI-AML2 cell line Proliferation assay; type: functional, Homo sapiens; details: Compound concentration 10 uM; time 3 day
# [7] = target: Translocator protein (Rattus norvegicus) (UniProt P16257); experiment: BZD (peripheral) CEREP ligand profiling; details: filed as antagonist; Compound concentration 10.0 uM
# Chain of Translocator protein (Rattus norvegicus) (P16257 whole entry, looked up): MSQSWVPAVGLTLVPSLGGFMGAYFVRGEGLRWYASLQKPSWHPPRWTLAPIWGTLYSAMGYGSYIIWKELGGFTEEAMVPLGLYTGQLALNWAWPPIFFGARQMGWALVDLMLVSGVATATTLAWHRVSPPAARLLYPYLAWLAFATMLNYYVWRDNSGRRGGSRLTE
# SU-DHL10 = experiment: SuDHL10 cell line Proliferation assay; type: functional, Homo sapiens; details: Compound concentration 10 uM; time 3 day
# U-2940 = experiment: U2940 cell line Proliferation assay; type: functional, Homo sapiens; details: Compound concentration 10 uM; time 3 day
# CWR22R = experiment: 22Rv1 cell line Proliferation assay; type: functional, Homo sapiens; details: Compound concentration 10 uM; time 5 day
# Hs 695T = experiment: Hs695T cell line Proliferation assay; type: functional, Homo sapiens; details: Compound concentration 10 uM; time 5 day
# Malme-3M = experiment: Malme3M cell line Proliferation assay; type: functional, Homo sapiens; details: Compound concentration 10 uM; time 5 day
# NCI-H510A = experiment: H510A cell line Proliferation assay; type: functional, Homo sapiens; details: Compound concentration 10 uM; time 4 day
# THP-1 = experiment: THP-1 cell line Proliferation assay; type: functional, Homo sapiens; details: Compound concentration 10 uM; time 3 day
# NCI-H1693 = experiment: H1693 cell line Proliferation assay; type: functional, Homo sapiens; details: Compound concentration 10 uM; time 3 day
# NCI-H23 = experiment: H23 cell line Proliferation assay; type: functional, Homo sapiens; details: Compound concentration 10 uM; time 3 day
# SET-2 = experiment: SET-2 cell line Proliferation assay; type: functional, Homo sapiens; details: Compound concentration 10 uM; time 3 day
# NCI-H929 = experiment: H929 cell line Proliferation assay; type: functional, Homo sapiens; details: Compound concentration 10 uM; time 3 day
# RCK8 = experiment: RCK8 cell line Proliferation assay; type: functional, Homo sapiens; details: Compound concentration 10 uM; time 3 day
# [8] = target: Adenosine receptor A1 (Homo sapiens) (UniProt P30542); experiment: A1 (h) CEREP ligand profiling; details: filed as antagonist, Compound concentration 10.0 uM
# Chain of Adenosine receptor A1 (Homo sapiens) (P30542 whole entry): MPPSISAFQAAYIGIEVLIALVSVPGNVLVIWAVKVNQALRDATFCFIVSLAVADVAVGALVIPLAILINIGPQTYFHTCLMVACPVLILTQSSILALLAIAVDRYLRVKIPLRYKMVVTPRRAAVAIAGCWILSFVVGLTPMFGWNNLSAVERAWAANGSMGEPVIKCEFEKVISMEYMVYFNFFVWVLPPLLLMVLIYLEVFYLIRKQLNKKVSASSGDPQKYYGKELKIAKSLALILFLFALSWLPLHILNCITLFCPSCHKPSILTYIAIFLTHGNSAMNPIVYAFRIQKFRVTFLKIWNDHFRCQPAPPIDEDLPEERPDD
# NCI-H128 = experiment: H128 cell line Proliferation assay; type: functional, Homo sapiens; details: Compound concentration 10 uM; time 4 day
# NCI-H69 = experiment: H69 cell line Proliferation assay; type: functional, Homo sapiens; details: Compound concentration 10 uM; time 4 day
# HT = experiment: HT cell line Proliferation assay; type: functional, Homo sapiens; details: Compound concentration 10 uM; time 3 day
# NCI-H146 = experiment: H146 cell line Proliferation assay; type: functional, Homo sapiens; details: Compound concentration 10 uM; time 4 day
# WSU-NHL = experiment: WSU-NHL cell line Proliferation assay; type: functional, Homo sapiens; details: Compound concentration 10 uM; time 3 day
# NCI-H211 = experiment: H211 cell line Proliferation assay; type: functional, Homo sapiens; details: Compound concentration 10 uM; time 4 day
# Toledo = experiment: Toledo cell line Proliferation assay; type: functional, Homo sapiens; details: Compound concentration 10 uM; time 3 day
# COR-L47 = experiment: Cor-L47 cell line Proliferation assay; type: functional, Homo sapiens; details: Compound concentration 10 uM; time 4 day
# LNCaP-Clone-FGC = experiment: LnCaP -FGC cell line Proliferation assay; type: functional, Homo sapiens; details: Compound concentration 10 uM; time 5 day
# DU-4475 = experiment: DU4475 cell line Proliferation assay; type: functional, Homo sapiens; details: Compound concentration 10 uM; time 5 day
structure (smiles),measurement,setting,value
CNC(=O)Nc1ccc2c(c1)CC[C@@]21OC(=O)N(CC(=O)N(Cc2ccc(F)cc2)[C@@H](C)C(F)(F)F)C1=O [A-485],Cell Proliferation EC50,Calu-6,8573 nM
same,Cell Proliferation EC50,MDA-MB-231,>10000 nM
same,Cell Proliferation EC50,DB,772.7 nM
same,Cell Proliferation EC50,SK-MEL-1,571 nM
same,inhibition,[1],-2.53%
same,Cell Proliferation EC50,Farage,>10000 nM
same,Cell Proliferation EC50,RPMI-8226,164 nM
same,Cell Proliferation EC50,Hs 294T,9000 nM
same,Cell Proliferation EC50,Pfeiffer,858.6 nM
same,Cell Proliferation EC50,KARPAS-422,245.4 nM
same,inhibition,[2],1.4%
same,Cell Proliferation EC50,SU-DHL-5,760.6 nM
same,Ki,[3]; read-out: Ki,1290 nM
same,Ki,[3]; read-out: pKi (converted),1200 nM
same,Cell Proliferation EC50,KMS-11,241 nM
same,Cell Proliferation EC50,Daudi,434.6 nM
same,Cell Proliferation EC50,Raji,463.1 nM
same,Cell Proliferation EC50,JVM-2,>10000 nM
same,Cell Proliferation EC50,CA46,480.9 nM
same,inhibition,[4],8%
same,inhibition,[5],7.83%
same,Cell Proliferation EC50,Granta-519,3280 nM
same,Cell Proliferation EC50,NCI-H596,>10000 nM
same,Cell Proliferation EC50,GA-10,1059 nM
same,Cell Proliferation EC50,NCI-H1048,>10000 nM
same,Ki,[6]; read-out: Ki,1820 nM
same,Ki,[6]; read-out: pKi (converted),1780 nM
same,Cell Proliferation EC50,ULA,550.6 nM
same,Cell Proliferation EC50,MOLT-4,>10000 nM
same,Cell Proliferation EC50,OCI-AML2,2030 nM
same,inhibition,[7],72%
same,Cell Proliferation EC50,SU-DHL10,916.9 nM
same,Cell Proliferation EC50,U-2940,1332 nM
same,Cell Proliferation EC50,CWR22R,320 nM
same,Cell Proliferation EC50,Hs 695T,3571 nM
same,Cell Proliferation EC50,Malme-3M,2687 nM
same,Cell Proliferation EC50,NCI-H510A,>10000 nM
same,Cell Proliferation EC50,THP-1,3510 nM
same,Cell Proliferation EC50,NCI-H1693,2367 nM
same,Cell Proliferation EC50,NCI-H23,1791 nM
same,Cell Proliferation EC50,SET-2,2010 nM
same,Cell Proliferation EC50,NCI-H929,329 nM
same,Cell Proliferation EC50,RCK8,589.3 nM
same,inhibition,[8],9%
same,Cell Proliferation EC50,NCI-H128,>10000 nM
same,Cell Proliferation EC50,NCI-H69,>10000 nM
same,Cell Proliferation EC50,HT,>10000 nM
same,Cell Proliferation EC50,NCI-H146,400 nM
same,Cell Proliferation EC50,WSU-NHL,1063 nM
same,Cell Proliferation EC50,NCI-H211,1500 nM
same,Cell Proliferation EC50,Toledo,487.5 nM
same,Cell Proliferation EC50,COR-L47,>10000 nM
same,Cell Proliferation EC50,LNCaP-Clone-FGC,260 nM
same,Cell Proliferation EC50,DU-4475,668.3 nM
